Experiments:
Mycobacterium terrae = experiment: AOAC tuberculocidal test, kill time; assay type: cell-based
Text: These standards are based on the known or possible risk of contamination of a particular medical device by a particular micro-organism, the pathogenic nature of the organism and other principles in infection control. […] The test panels and criteria are different for “low”, “intermediate” or “high-level disinfection”. These terms are herein used in accordance with current Food and Drug Administration (“FDA”) criteria for levels of disinfection which are detailed in Premarket Notification [510(k)] Submissions for Liquid Chemical Sterilants and High Level Disinfectants FDA 1997: “A germicide that inactivates all microbial pathogens except large number of bacterial endospores when used according to labelling”. In brief, the FDA regulatory requirement for high level disinfectants includes as the most challenging test a 100% kill of Mycobacterium tuberculosis var. bovis (or a specific strain of a suitable surrogate, such as Mycobacterium terrae) in 400 p.p.m. hard water in the presence of 2% horse serum in a quantitative tuberculocidal test.
In the following tables unless otherwise specified references to “kill time” mean the time required to achieve complete kill as defined in the relevant AOAC test (more particularly identified in annexure 1). “No kill” means less than 2 log reduction from the initial population. Unless otherwise specified “QUAT” is benzalkonium chloride, specifically Gardiquat NC-50 (Albright & Wilson). Test points for vegetative bacteria (M. terrae) were 2, 5, 10, 20 and 60 mins. Test points for spores were 0.5, 1, 2, 4, 16, 24, 48 hours. The last column in each table indicates whether the tested combination satisfies the FDA requirement for high level disinfection (“HLD”) or fails to do so (“F”).
AOAC tests for determination of High level Disinfection as defined in current FDA criteria (detailed in “Premarket Notification [510(k)] Submissions for Liquid Chemical Sterilants and High Level Disinfectants FDA 1993”.):
AOAC Tuberculocidal Activity of Disinfectants
AOAC Ref No 965.12, AOAC Official Methods of Analysis (1995)

B. subtilis spores = experiment: AOAC sporicidal test, kill time; assay type: cell-based; settings: for B. subtilis (no kill): 48 hrs
[1] = Table 3 Prior art, 0.25% QUAT, 25° C.
[2] = Table 6 unnumbered test, 2% QUAT + 0.2% Protease (Savinase 16 L), 25° C. + 1% borax
[3] = test 3.4, 0.25% QUAT, 62° C. + ultrasound
[4] = test 4.1, 2% QUAT, 25° C. + 1% borax
[5] = test 4.2, 5% QUAT, 25° C. + 1% borax
[6] = test 4.3, 1% QUAT, 40° C. + 1% borax
[7] = test 4.4, 2% QUAT, 40° C. + 1% borax
[8] = test 4.5, 5% QUAT, 40° C. + 1% borax
[9] = test 4.6, 2% QUAT, 50° C. + 1% borax
[10] = test 4.7, 5% QUAT, 50° C. + 1% borax
[11] = test 5.1, 1% QUAT, 40° C. + ultrasound 10 min each hour
[12] = test 5.2, 2% QUAT, 40° C. + ultrasound 10 min each hour
[13] = test 5.3, 5% QUAT, 40° C. + ultrasound 10 min each hour
[14] = test 5.4, 1% QUAT, 40° C. + ultrasound 10 min each hour
[15] = test 5.5, 2% QUAT + 1% borax, 40° C. + ultrasound 10 min each hour
[16] = test 5.6, 5% QUAT + 1% borax, 40° C. + ultrasound 10 min each hour
[17] = test 5.7, 2% QUAT + 1% borax + Protease, 40° C. + ultrasound 10 min each hour
[18] = test 6.1, 2% QUAT + 0.2% Protease (Savinase 16 L), 25° C.
[19] = test 6.2, 2% QUAT + 0.2% Protease (Savinase 16 L), 40° C.
[20] = test 6.3, 2% QUAT + 0.2% Protease (Savinase 16 L), 40° C. + 1% borax
[21] = test 6.4, 2% QUAT + 0.2% Protease (Savinase 16 L), 50° C.
[22] = test 6.5, 2% QUAT + 0.2% Protease (Savinase 16 L), 50° C. + 1% borax
[23] = test 6.6, 2% QUAT + 0.2% Protease (Savinase 16 L), 40° C. + ultrasound 10 min each hour + 1% borax
[24] = test 6.7, 2% QUAT + 1% borax + Protease, 40° C. + ultrasound 10 min each hour

benzalkonium chloride [QUAT]
Kill Time M. terrae (Mycobacterium terrae; [1]): >60 min | Kill Time M. terrae (Mycobacterium terrae; [2]): >60 min | kill time of Mycobacterium terrae (Mycobacterium terrae; above 1% w/w of quat, 40° C.): less than 5 mins | Kill Time Mycobacterium terrae (Mycobacterium terrae; test 1.1, 0.025% QUAT, 25° C.): >60 min | Kill Time Mycobacterium terrae (Mycobacterium terrae; test 1.2, 0.25% QUAT, 25° C.): >60 min | Kill Time Mycobacterium terrae (Mycobacterium terrae; test 2.1, 5% QUAT, 30° C.): <5 min | Kill Time Mycobacterium terrae (Mycobacterium terrae; test 2.2, 1.0% QUAT, 40° C.): <5 min | Kill Time Mycobacterium terrae (Mycobacterium terrae; test 2.3, 2.0% QUAT, 40° C.): <5 min | Kill Time Mycobacterium terrae (Mycobacterium terrae; test 2.4, 5.0% QUAT, 40° C.): <5 min | Kill Time Mycobacterium terrae (Mycobacterium terrae; test 2.5, 1.0% QUAT, 50° C.): <5 min | Kill Time Mycobacterium terrae (Mycobacterium terrae; test 2.6, 2.0% QUAT, 50° C.): <5 min | Kill Time Mycobacterium terrae (Mycobacterium terrae; test 2.7, 5.0% QUAT, 50° C.): <5 min | Kill Time Mycobacterium terrae (Mycobacterium terrae; test 2.8, 1.0% QUAT, 80° C.): <5 min | Kill Time M. terrae (Mycobacterium terrae; test 3.1, 0.25% QUAT, 40° C.): >60 min | Kill Time M. terrae (Mycobacterium terrae; test 3.2, 0.25% QUAT, 50° C.): >60 min | Kill Time M. terrae (Mycobacterium terrae; test 3.3, 0.25% QUAT, 60° C.): >60 min | Kill Time M. terrae (Mycobacterium terrae; [3]): >60 min | Kill Time M. terrae (Mycobacterium terrae; test 3.5, 1.0% QUAT, 25° C.): >60 min | Kill Time M. terrae (Mycobacterium terrae; test 3.6, 2.0% QUAT, 25° C.): >60 min | Kill Time M. terrae (Mycobacterium terrae; test 3.7, 5.0% QUAT, 25° C.): >60 min | Kill Time M. terrae (Mycobacterium terrae; test 3.8, 0.6%, 40° C.): >60 min | Kill Time M. terrae (Mycobacterium terrae; test 3.9, 0.6% QUAT, 50° C.): >20 min | Kill Time M. terrae (Mycobacterium terrae; [4]): >60 min | Kill Time M. terrae (Mycobacterium terrae; [5]): >60 min | Kill Time M. terrae (Mycobacterium terrae; [6]): <5 min | Kill Time M. terrae (Mycobacterium terrae; [7]): <2 min | Kill Time M. terrae (Mycobacterium terrae; [8]): <2 min | Kill Time M. terrae (Mycobacterium terrae; [9]): <2 min | Kill Time M. terrae (Mycobacterium terrae; [10]): <2 min | Kill Time M. terrae (Mycobacterium terrae; [11]): <5 min | Kill Time M. terrae (Mycobacterium terrae; [12]): <5 min | Kill Time M. terrae (Mycobacterium terrae; [13]): <5 min | Kill Time M. terrae (Mycobacterium terrae; [14]): <5 min | Kill Time M. terrae (Mycobacterium terrae; [15]): <2 min | Kill Time M. terrae (Mycobacterium terrae; [16]): <2 min | Kill Time M. terrae (Mycobacterium terrae; [17]): <2 min | Kill Time M. terrae (Mycobacterium terrae; [18]): >60 min | Kill Time M. terrae (Mycobacterium terrae; [19]): <5 min | Kill Time M. terrae (Mycobacterium terrae; [20]): <2 min | Kill Time M. terrae (Mycobacterium terrae; [21]): <5 min | Kill Time M. terrae (Mycobacterium terrae; [22]): <2 min | Kill Time M. terrae (Mycobacterium terrae; [23]): <2 min | Kill Time M. terrae (Mycobacterium terrae; [24]): <2 min | Kill Time B. subtilis (B. subtilis spores; [1]): >24 h | Kill Time B. subtilis (B. subtilis spores; [2]): >48 h | B. subtilis (no kill) (B. subtilis spores; [2]): (no kill) (“No kill” means less than 2 log reduction from the initial population) | kill time of B. subtilis (B. subtilis spores; above 1% w/w of quat, 40° C.): less than 2 hours | Kill Time B. subtilis (B. subtilis spores; test 1.1, 0.025% QUAT, 25° C.): >24 h | Kill Time B. subtilis (B. subtilis spores; test 1.2, 0.25% QUAT, 25° C.): >24 h | Kill Time B. subtilis (B. subtilis spores; test 2.1, 5% QUAT, 30° C.): <2 h | Kill Time B. subtilis (B. subtilis spores; test 2.2, 1.0% QUAT, 40° C.): <2 h | Kill Time B. subtilis (B. subtilis spores; test 2.3, 2.0% QUAT, 40° C.): <2 h | Kill Time B. subtilis (B. subtilis spores; test 2.4, 5.0% QUAT, 40° C.): <1 h | Kill Time B. subtilis (B. subtilis spores; test 2.5, 1.0% QUAT, 50° C.): <1 h | Kill Time B. subtilis (B. subtilis spores; test 2.6, 2.0% QUAT, 50° C.): <1 h | Kill Time B. subtilis (B. subtilis spores; test 2.7, 5.0% QUAT, 50° C.): <1 h | Kill Time B. subtilis (B. subtilis spores; test 2.7, 5.0% QUAT, 50° C., listed as quat): less than one hour | Kill Time B. subtilis (B. subtilis spores; test 2.8, 1.0% QUAT, 80° C.): <1 h | Kill Time B. subtilis (B. subtilis spores; test 2.8, 1.0% QUAT, 80° C., listed as quat): less than one hour | Kill Time B. subtilis (B. subtilis spores; test 3.1, 0.25% QUAT, 40° C.): >24 h | Kill Time B. subtilis (B. subtilis spores; test 3.2, 0.25% QUAT, 50° C.): >24 h | Kill Time B. subtilis (B. subtilis spores; test 3.3, 0.25% QUAT, 60° C.): >24 h | Kill Time B. subtilis (B. subtilis spores; [3]): >24 h | Kill Time B. subtilis (B. subtilis spores; test 3.5, 1.0% QUAT, 25° C.): >48 h | B. subtilis (no kill) (B. subtilis spores; test 3.5, 1.0% QUAT, 25° C.): (no kill) (“No kill” means less than 2 log reduction from the initial population) | Kill Time B. subtilis (B. subtilis spores; test 3.6, 2.0% QUAT, 25° C.): >48 h | B. subtilis (no kill) (B. subtilis spores; test 3.6, 2.0% QUAT, 25° C.): (no kill) (“No kill” means less than 2 log reduction from the initial population) | Kill Time B. subtilis (B. subtilis spores; test 3.7, 5.0% QUAT, 25° C.): >48 h | B. subtilis (no kill) (B. subtilis spores; test 3.7, 5.0% QUAT, 25° C.): (no kill) (“No kill” means less than 2 log reduction from the initial population) | Kill Time B. subtilis (B. subtilis spores; test 3.8, 0.6%, 40° C.): >24 h | Kill Time B. subtilis (B. subtilis spores; test 3.9, 0.6% QUAT, 50° C.): <16 h | Kill Time B. subtilis (B. subtilis spores; [4]): >48 h | B. subtilis (no kill) (B. subtilis spores; [4]): (no kill) (“No kill” means less than 2 log reduction from the initial population) | Kill Time B. subtilis (B. subtilis spores; [5]): >48 h | B. subtilis (no kill) (B. subtilis spores; [5]): (no kill) (“No kill” means less than 2 log reduction from the initial population) | Kill Time B. subtilis (B. subtilis spores; [6]): <1 h | Kill Time B. subtilis (B. subtilis spores; [7]): <1 h | Kill Time B. subtilis (B. subtilis spores; [8]): <1 h | Kill Time B. subtilis (B. subtilis spores; [9]): <1 h | Kill Time B. subtilis (B. subtilis spores; [10]): <1 h | Kill Time B. subtilis (B. subtilis spores; [11]): <2 h | Kill Time B. subtilis (B. subtilis spores; [12]): <1 h | Kill Time B. subtilis (B. subtilis spores; [13]): <1 h | Kill Time B. subtilis (B. subtilis spores; [14]): <1 h | Kill Time B. subtilis (B. subtilis spores; [15]): <1 h | Kill Time B. subtilis (B. subtilis spores; [16]): <1 h | Kill Time B. subtilis (B. subtilis spores; [17]): <1 h | Kill Time B. subtilis (B. subtilis spores; [18]): >48 h | B. subtilis (no kill) (B. subtilis spores; [18]): (no kill) (“No kill” means less than 2 log reduction from the initial population) | Kill Time B. subtilis (B. subtilis spores; [19]): <2 h | Kill Time B. subtilis (B. subtilis spores; [20]): <1 h | Kill Time B. subtilis (B. subtilis spores; [21]): <1 h | Kill Time B. subtilis (B. subtilis spores; [22]): <1 h | Kill Time B. subtilis (B. subtilis spores; [23]): <1 h | Kill Time B. subtilis (B. subtilis spores; [24]): <1 h
